Test results: article PMC8445792 (Applied Biological Chemistry, 2021)

Assays:
[1] = molecular target: H1N1 NA (A/California/04/2009) (Influenza A virus (A/California/04/2009(H1N1)), UniProt C3W5S3); test: biochemical; details: read-out: % Inhibition ± SE H1N1 NA
[2] = molecular target: H5N1 NA (A/Anhui/1/2005) (Influenza A virus (A/Anhui/1/2005(H5N1)), UniProt A0A0C5AGB3); test: biochemical; details: read-out: % Inhibition ± SE H5N1 NA

Compound	inhibition at 100 µg/mL [1]	inhibition at 100 µg/mL [2]
COc1cc(C(=O)/C=C/c2ccc(OCc3ccccc3)c(OC)c2)ccc1O [Compound 2c]	1 ± 4%	–
CC(C)Oc1ccc(C(=O)/C=C/c2ccc(F)cc2)cc1 [Compound 1b]	5 ± 8%	0%
O=C(O)c1ccc(/C=C/C(=O)c2ccc(O)cc2)cc1 [Compound 3a]	19 ± 2%	27%
COc1cc(/C=C/C(=O)c2ccc(O)cc2)ccc1OCc1ccccc1 [Compound 3c]	2 ± 4%	7 ± 8%
COc1cc(C=O)ccc1O [Vanillin, reference compound]	86 ± 2%	84 ± 4%
O=C(/C=C/c1ccc([N+](=O)[O-])cc1)c1ccc(OC2CCCC2)cc1 [Compound 4b]	5 ± 5%	15 ± 3%
O=C(/C=C/c1ccc(F)cc1)c1ccc(OCc2ccccc2)cc1 [Compound 3b]	2 ± 4%	18 ± 3%
O=C(/C=C/c1ccc([N+](=O)[O-])cc1)c1ccc(O)cc1 [Compound 2a]	16 ± 2%	21 ± 2%
O=C(/C=C/c1ccc(F)cc1)c1ccc(O)cc1 [Compound 1a]	21 ± 7%	23 ± 11%
